# Values quoted from earlier work in patent US7645792B2, “Prodrugs of propofol, compositions and uses thereof” (XenoPort, Inc., priority 2004, dated 2010).
# Conditions: rats, oral dosing
compound,measurement,value
"CC(C)c1cccc(C(C)C)c1O [propofol, 2,6-diisopropylphenol]",Administered drug undergoing first pass metabolism,approximately 90%
